Results from ChEMBL document CHEMBL3877252, “Fluorescein hydrazones: A series of novel non-intercalative topoisomerase IIα catalytic inhibitors induce G1 arrest and apoptosis in breast and colon cancer cells” (Eur J Med Chem, 2017).
Each block holds one molecule with its values, some of them ahead of it. Active and inactive are the calls of the source. The rule behind the calls is not given here.

Experiments:
[1] = Antiproliferative activity against human T47D cells measured after 72 hrs by CCK8 assay; assay type: functional, cell-based
[2] = Antiproliferative activity against human DU145 cells measured after 72 hrs by CCK8 assay; assay type: functional, cell-based; details: DU-145, 72 h
[3] = Antiproliferative activity against human HCT15 cells measured after 72 hrs by CCK8 assay; assay type: functional, cell-based; details: HCT-15, 72 h
[4] = Antiproliferative activity against human MCF7 cells measured after 72 hrs by CCK8 assay; assay type: functional, cell-based; details: MCF7, 72 h
[5] = molecular target: DNA topoisomerase 2-alpha (Homo sapiens) (UniProt P11388); experiment: Poison activity at topoisomerase-2 alpha in human HCT15 cells assessed as DNA damage by measuring DNA tail length at 5 uM measured after 24 hrs by alkaline comet assay; assay type: cell-based; details: HCT-15
[6] = molecular target: DNA topoisomerase 2-alpha (Homo sapiens) (UniProt P11388); experiment: Poison activity at topoisomerase-2 alpha in human HCT15 cells assessed as DNA damage by measuring DNA tail length at 10 uM measured after 24 hrs by alkaline comet assay; assay type: cell-based; details: HCT-15
[7] = molecular target: DNA topoisomerase 2-alpha (Homo sapiens) (UniProt P11388); experiment: Poison activity at topoisomerase-2 alpha in human T47D cells assessed as DNA damage by measuring DNA tail length at 5 uM measured after 24 hrs by alkaline comet assay; assay type: cell-based
[8] = molecular target: DNA topoisomerase 2-alpha (Homo sapiens) (UniProt P11388); experiment: Poison activity at topoisomerase-2 alpha in human T47D cells assessed as DNA damage by measuring DNA tail length at 10 uM measured after 24 hrs by alkaline comet assay; assay type: cell-based
[9] = Cell cycle arrest in human HCT15 cells assessed as accumulation at G2/M phase after 20 hrs by DAPI staining-based cell analyzer; assay type: functional; details: HCT-15
[10] = Cell cycle arrest in human T47D cells assessed as accumulation at G2/M phase after 24 hrs by DAPI staining-based cell analyzer; assay type: functional
[11] = Cell cycle arrest in human HCT15 cells assessed as accumulation at G1 phase at 1 uM after 20 hrs by DAPI staining-based cell analyzer (reference value: 40%); assay type: functional; details: HCT-15
[12] = Cell cycle arrest in human HCT15 cells assessed as accumulation at S phase at 1 uM after 20 hrs by DAPI staining-based cell analyzer (reference value: 34%); assay type: functional; details: HCT-15
[13] = Cell cycle arrest in human HCT15 cells assessed as accumulation at G2/M phase at 1 uM after 20 hrs by DAPI staining-based cell analyzer (reference value: 13%); assay type: functional; details: HCT-15
[14] = Cell cycle arrest in human HCT15 cells assessed as accumulation at G1 phase at 0.5 uM after 20 hrs by DAPI staining-based cell analyzer (reference value: 40%); assay type: functional; details: HCT-15
[15] = Cell cycle arrest in human HCT15 cells assessed as accumulation at S phase at 0.5 uM after 20 hrs by DAPI staining-based cell analyzer (reference value: 34%); assay type: functional; details: HCT-15
[16] = Cell cycle arrest in human HCT15 cells assessed as accumulation at G2/M phase at 0.5 uM after 20 hrs by DAPI staining-based cell analyzer (reference value: 13%); assay type: functional; details: HCT-15
[17] = Cell cycle arrest in human T47D cells assessed as accumulation at G1 phase at 1 uM after 24 hrs by DAPI staining-based cell analyzer (reference value: 51%); assay type: functional
[18] = Cell cycle arrest in human T47D cells assessed as accumulation at S phase at 1 uM after 24 hrs by DAPI staining-based cell analyzer (reference value: 26%); assay type: functional
[19] = Cell cycle arrest in human T47D cells assessed as accumulation at G2/M phase at 1 uM after 24 hrs by DAPI staining-based cell analyzer (reference value: 15%); assay type: functional
[20] = Cell cycle arrest in human T47D cells assessed as accumulation at G1 phase at 0.5 uM after 24 hrs by DAPI staining-based cell analyzer (reference value: 51%); assay type: functional
[21] = Cell cycle arrest in human T47D cells assessed as accumulation at S phase at 0.5 uM after 24 hrs by DAPI staining-based cell analyzer (reference value: 26%); assay type: functional
[22] = Cell cycle arrest in human T47D cells assessed as accumulation at G2/M phase at 0.5 uM after 24 hrs by DAPI staining-based cell analyzer (reference value: 13%); assay type: functional
[23] = molecular target: T1, DNA topoisomerase 1 (Homo sapiens) (UniProt P11387); experiment: Inhibition of human topoisomerase-1 assessed as inhibition of relaxation of supercoiled pBR322 plasmid DNA at 100 uM measured after 1 hr by ethidium bromide staining based agarose gel electrophoresis relative to control
T1 sequence (whole entry): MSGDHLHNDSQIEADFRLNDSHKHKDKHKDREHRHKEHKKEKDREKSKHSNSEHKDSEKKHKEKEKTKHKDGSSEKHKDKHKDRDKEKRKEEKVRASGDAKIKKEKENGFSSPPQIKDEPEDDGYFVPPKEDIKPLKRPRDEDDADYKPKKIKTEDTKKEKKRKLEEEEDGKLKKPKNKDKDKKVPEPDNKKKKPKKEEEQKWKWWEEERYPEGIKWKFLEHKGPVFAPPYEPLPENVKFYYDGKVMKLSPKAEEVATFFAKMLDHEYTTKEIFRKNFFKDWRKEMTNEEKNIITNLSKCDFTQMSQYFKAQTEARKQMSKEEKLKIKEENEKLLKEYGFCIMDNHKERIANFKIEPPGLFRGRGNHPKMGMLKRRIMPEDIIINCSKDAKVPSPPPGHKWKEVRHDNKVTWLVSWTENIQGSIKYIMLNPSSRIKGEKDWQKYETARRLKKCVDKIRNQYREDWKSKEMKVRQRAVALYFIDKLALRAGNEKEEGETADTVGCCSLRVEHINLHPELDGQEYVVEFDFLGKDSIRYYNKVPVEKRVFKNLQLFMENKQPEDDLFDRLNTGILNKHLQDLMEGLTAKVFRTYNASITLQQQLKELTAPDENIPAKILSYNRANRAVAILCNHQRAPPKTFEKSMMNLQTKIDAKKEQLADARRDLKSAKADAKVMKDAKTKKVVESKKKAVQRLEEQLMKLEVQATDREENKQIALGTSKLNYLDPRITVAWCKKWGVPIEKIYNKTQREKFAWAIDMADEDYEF

[24] = molecular target: T1, DNA topoisomerase 1 (Homo sapiens); experiment: Inhibition of human topoisomerase-1 assessed as inhibition of relaxation of supercoiled pBR322 plasmid DNA at 20 uM measured after 1 hr by ethidium bromide staining based agarose gel electrophoresis relative to control
[25] = molecular target: DNA topoisomerase 2-alpha (Homo sapiens) (UniProt P11388); experiment: Inhibition of human topoisomerase-2 alpha assessed as inhibition of relaxation of supercoiled pBR322 plasmid DNA at 100 uM measured after 1 hr by ethidium bromide staining based agarose gel electrophoresis relative to control
[26] = molecular target: DNA topoisomerase 2-alpha (Homo sapiens) (UniProt P11388); experiment: Inhibition of human topoisomerase-2 alpha assessed as inhibition of relaxation of supercoiled pBR322 plasmid DNA at 20 uM measured after 1 hr by ethidium bromide staining based agarose gel electrophoresis relative to control
[27] = molecular target: DNA topoisomerase 2-alpha (Homo sapiens) (UniProt P11388); experiment: Inhibition of topoisomerase-2 alpha catalytic activity in human HCT15 cells assessed as appearance of free protein band at 50 uM measured after 2 hrs by Western blot analysis; assay type: cell-based; details: HCT-15
[28] = Cell cycle arrest in human HCT15 cells assessed as decrease in cyclin D1 level measured after 20 hrs; assay type: functional, cell-based; details: HCT-15
[29] = Cell cycle arrest in human HCT15 cells assessed as increase in p27kip1 level measured after 20 hrs; assay type: functional, cell-based; details: HCT-15
[30] = Cell cycle arrest in human HCT15 cells assessed as accumulation at G1 phase at 10 uM by DAPI staining based cell analyzer; assay type: functional; details: HCT-15, TDE = time-dependent effect
[31] = Cell cycle arrest in human HCT15 cells assessed as decrease in cyclin D1 level at 10 uM; assay type: functional, cell-based; details: HCT-15, TDE = time-dependent effect
[32] = Cell cycle arrest in human HCT15 cells assessed as increase in p27kip1 level at 10 uM; assay type: functional, cell-based; details: HCT-15, TDE = time-dependent effect
[33] = test system: HCT-15; experiment: Induction of apoptosis in human HCT15 cells assessed as increase in cleaved PARP level measured after 24 hrs by Western blot analysis; assay type: functional, cell-based
[34] = test system: HCT-15; experiment: Induction of apoptosis in human HCT15 cells assessed as increase in bax level measured after 24 hrs by Western blot analysis; assay type: functional, cell-based
[35] = test system: HCT-15; experiment: Induction of apoptosis in human HCT15 cells assessed as decrease in bcl-2 level measured after 24 hrs by Western blot analysis; assay type: functional, cell-based
[36] = Cell cycle arrest in human HCT15 cells assessed as accumulation at G1 phase at 3 uM after 20 hrs by DAPI staining-based cell analyzer (reference value: 40%); assay type: functional; details: HCT-15
[37] = Cell cycle arrest in human HCT15 cells assessed as accumulation at G1 phase at 10 uM after 20 hrs by DAPI staining-based cell analyzer (reference value: 40%); assay type: functional; details: HCT-15
[38] = Cell cycle arrest in human HCT15 cells assessed as accumulation at S phase at 3 uM after 20 hrs by DAPI staining-based cell analyzer (reference value: 34%); assay type: functional; details: HCT-15
[39] = Cell cycle arrest in human HCT15 cells assessed as accumulation at S phase at 10 uM after 20 hrs by DAPI staining-based cell analyzer (reference value: 34%); assay type: functional; details: HCT-15
[40] = Cell cycle arrest in human HCT15 cells assessed as accumulation at G2/M phase at 3 uM after 20 hrs by DAPI staining-based cell analyzer (reference value: 13%); assay type: functional; details: HCT-15
[41] = Cell cycle arrest in human HCT15 cells assessed as accumulation at G2/M phase at 10 uM after 20 hrs by DAPI staining-based cell analyzer (reference value: 13%); assay type: functional; details: HCT-15
[42] = Cell cycle arrest in human HCT15 cells assessed as accumulation at G1 phase at 10 uM after 5 hrs by DAPI staining-based cell analyzer (reference value: 61%); assay type: functional; details: HCT-15
[43] = Cell cycle arrest in human HCT15 cells assessed as accumulation at G1 phase at 10 uM after 10 hrs by DAPI staining-based cell analyzer (reference value: 61%); assay type: functional; details: HCT-15
[44] = Cell cycle arrest in human HCT15 cells assessed as accumulation at G1 phase at 10 uM after 15 hrs by DAPI staining-based cell analyzer (reference value: 61%); assay type: functional; details: HCT-15
[45] = Cell cycle arrest in human HCT15 cells assessed as accumulation at G1 phase at 10 uM after 20 hrs by DAPI staining-based cell analyzer (reference value: 61%); assay type: functional; details: HCT-15
[46] = Cell cycle arrest in human HCT15 cells assessed as accumulation at S phase at 10 uM after 5 hrs by DAPI staining-based cell analyzer (reference value: 10%); assay type: functional; details: HCT-15
[47] = Cell cycle arrest in human HCT15 cells assessed as accumulation at S phase at 10 uM after 10 hrs by DAPI staining-based cell analyzer (reference value: 10%); assay type: functional; details: HCT-15
[48] = Cell cycle arrest in human HCT15 cells assessed as accumulation at S phase at 10 uM after 15 hrs by DAPI staining-based cell analyzer (reference value: 10%); assay type: functional; details: HCT-15
[49] = Cell cycle arrest in human HCT15 cells assessed as accumulation at S phase at 10 uM after 20 hrs by DAPI staining-based cell analyzer (reference value: 10%); assay type: functional; details: HCT-15
[50] = Cell cycle arrest in human HCT15 cells assessed as accumulation at G2/M phase at 10 uM after 5 hrs by DAPI staining-based cell analyzer (reference value: 13%); assay type: functional; details: HCT-15
[51] = Cell cycle arrest in human HCT15 cells assessed as accumulation at G2/M phase at 10 uM after 10 hrs by DAPI staining-based cell analyzer (reference value: 13%); assay type: functional; details: HCT-15
[52] = Cell cycle arrest in human HCT15 cells assessed as accumulation at G2/M phase at 10 uM after 15 hrs by DAPI staining-based cell analyzer (reference value: 13%); assay type: functional; details: HCT-15

Sequence of DNA topoisomerase 2-alpha (Homo sapiens) (P11388 whole entry): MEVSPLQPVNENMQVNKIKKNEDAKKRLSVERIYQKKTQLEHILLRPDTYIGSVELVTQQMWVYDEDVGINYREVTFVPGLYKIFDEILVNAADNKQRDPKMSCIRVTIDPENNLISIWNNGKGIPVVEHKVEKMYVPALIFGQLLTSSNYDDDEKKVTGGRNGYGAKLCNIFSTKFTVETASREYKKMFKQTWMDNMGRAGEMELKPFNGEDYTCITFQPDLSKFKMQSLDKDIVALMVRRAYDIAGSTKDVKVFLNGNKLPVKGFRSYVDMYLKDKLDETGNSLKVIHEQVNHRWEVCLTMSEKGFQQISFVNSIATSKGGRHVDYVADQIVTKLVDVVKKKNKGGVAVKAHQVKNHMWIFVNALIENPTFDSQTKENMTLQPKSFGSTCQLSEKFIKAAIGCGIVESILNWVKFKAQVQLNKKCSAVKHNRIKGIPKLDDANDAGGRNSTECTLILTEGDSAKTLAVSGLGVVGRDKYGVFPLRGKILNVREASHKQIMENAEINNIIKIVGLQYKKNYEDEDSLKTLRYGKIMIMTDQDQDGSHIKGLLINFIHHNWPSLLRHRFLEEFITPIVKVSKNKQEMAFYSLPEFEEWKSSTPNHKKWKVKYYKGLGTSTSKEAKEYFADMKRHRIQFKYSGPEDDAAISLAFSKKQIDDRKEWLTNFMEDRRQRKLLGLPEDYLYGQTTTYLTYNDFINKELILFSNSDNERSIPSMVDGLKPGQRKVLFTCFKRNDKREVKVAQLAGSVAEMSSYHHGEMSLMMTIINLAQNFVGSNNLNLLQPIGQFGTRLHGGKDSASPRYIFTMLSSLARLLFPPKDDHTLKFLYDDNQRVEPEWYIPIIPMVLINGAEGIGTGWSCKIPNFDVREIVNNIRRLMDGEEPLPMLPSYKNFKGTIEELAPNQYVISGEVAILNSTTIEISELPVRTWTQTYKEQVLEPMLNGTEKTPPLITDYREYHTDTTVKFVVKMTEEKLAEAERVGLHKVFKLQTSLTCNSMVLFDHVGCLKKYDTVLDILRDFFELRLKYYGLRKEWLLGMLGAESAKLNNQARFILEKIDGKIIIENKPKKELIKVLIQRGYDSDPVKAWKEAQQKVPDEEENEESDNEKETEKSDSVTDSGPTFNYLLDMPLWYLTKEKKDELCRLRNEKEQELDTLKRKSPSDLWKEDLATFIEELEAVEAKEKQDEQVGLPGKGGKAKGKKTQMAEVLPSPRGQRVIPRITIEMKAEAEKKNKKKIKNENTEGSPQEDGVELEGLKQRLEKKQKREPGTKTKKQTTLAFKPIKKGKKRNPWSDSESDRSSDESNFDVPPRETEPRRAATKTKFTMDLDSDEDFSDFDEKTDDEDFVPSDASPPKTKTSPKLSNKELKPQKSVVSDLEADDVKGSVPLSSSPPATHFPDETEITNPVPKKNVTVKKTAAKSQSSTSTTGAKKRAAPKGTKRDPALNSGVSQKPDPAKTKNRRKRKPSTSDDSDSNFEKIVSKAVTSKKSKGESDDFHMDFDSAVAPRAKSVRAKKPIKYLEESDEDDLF

SMILES: COc1cc([C@@H]2c3cc4c(cc3[C@@H](O[C@@H]3O[C@@H]5CO[C@@H](C)O[C@H]5[C@H](O)[C@H]3O)[C@H]3COC(=O)[C@H]23)OCO4)cc(OC)c1O [ETOPOSIDE]
IC50 [1]: 4.85 µM
IC50 [2]: 2.19 µM
IC50 [3]: 1.27 µM
IC50 [4]: 35.6 µM
Activity [5]: 37.5 pixel
Activity [6]: 46.3 pixel
Activity [7]: 62.7 pixel
Activity [8]: 66.2 pixel
Activity [9]: Dose-dependent effect
Activity [10]: Dose-dependent effect
Activity [11]: 17%
Activity [12]: 25%
Activity [13]: 32%
Activity [14]: 21%
Activity [15]: 26%
Activity [16]: 29%
Activity [17]: 35%
Activity [18]: 22%
Activity [19]: 33%
Activity [20]: 39%
Activity [21]: 24%
Activity [22]: 31%

inhibition [23]: 35.6%
inhibition [24]: 14.8%
inhibition [25]: 62.4%
inhibition [26]: 52.7%
inhibition [27]: Active
SMILES: CCOc1ccc2c(c1)Oc1cc(O)ccc1C21c2ccccc2C(=O)N1/N=C/c1ccccc1[N+](=O)[O-] (stereo unspecified)
IC50 [1]: > 50 µM
IC50 [2]: 1.43 µM
IC50 [3]: 2.4 µM
IC50 [4]: 11.4 µM
Activity [5]: 7.72 pixel
Activity [6]: 8.29 pixel
Activity [28]: Dose-dependent effect
Activity [29]: Dose-dependent effect
Activity [30]: Tde
Activity [31]: Tde
Activity [32]: Tde
Activity [33]: Dose-dependent effect
Activity [34]: Dose-dependent effect
Activity [35]: Dose-dependent effect
Activity [11]: 45%
Activity [36]: 48%
Activity [37]: 55%
Activity [12]: 28%
Activity [38]: 24%
Activity [39]: 20%
Activity [13]: 14%
Activity [40]: 11%
Activity [41]: 11 to 12%
Activity [42]: 64%
Activity [43]: 67%
Activity [44]: 68%
Activity [45]: 70%
Activity [46]: 8%
Activity [47]: 8%
Activity [48]: 8%
Activity [49]: 7%
Activity [50]: 11%
Activity [51]: 12%
Activity [52]: 11%
